From US5068064A, “N-substituted lauramides, their preparation and compositions in which they are present” (Sanofi, priority 1989, dated 1991)
In brackets after ≈: the same amount, converted by molar mass.

Experiments:
[1] = system: Escherichia coli CIP 54127; assay: Minimum bactericidal concentration, first method (30 min contact), E. coli; type: cell-based; details: CIP54127, 0.5 h, contact time 30 minutes
From the text: (§1) In the two methods, a bacterial inoculum is brought into contact with different dilutions of the product for a determined period of time.
(§2) When the contact period has ended, an aliquot of the mixture of bacterial suspension and product is taken and brought into contact with an agent for neutralizing the bacterial activity of the mixture, either in a solid medium or in a liquid medium. The bactericidal activity of the product, expressed either as a concentration or as a percentage of active principle, corresponds to an absence of bacterial growth.
(§3) The first method makes it possible to define a minimum bactericidal concentration (MBC) or minimum fungicidal concentration (MFC), expressed in μg/ml. The contact time between product and bacterial suspension is 30 minutes. The neutralizer is included in agar.
(§4) The CIP bacterial strains chosen for the study, which are available from the Institut Pasteur, are:
(§5) 3. Escherichia coli CIP 54127
(§6) The strains are maintained on Tryptic Soy Agar® (TSA) marketed by Difco.
(§7) After 24 hours of culture at 37° C., the microbial growth is harvested with the aid of glass beads and 10 ml of diluent containing 1 g of tryptone and 8.5 g of sodium chloride in 1000 ml of distilled water. The suspension formed is shaken and the percentage transmission of light at 620 nm is measured in a spectrophotometer:
(§8) The bacterial inoculum corresponds to a 1:20 dilution of this bacterial suspension.
(§9) Plates containing cupules receive different dilutions of the test product. These dilutions of the test product are brought into contact with the different bacterial suspensions using a multiple site inoculator. After a contact time of 30 minutes, aliquots are transferred with this inoculator to the surface of an agar medium (TSA) placed in Petri dishes containing an activity neutralizer, namely 20 g of lubrol W, 2.5 g of Tween 80, 2.5 g of sodium thiosulfate and 1% of egg yolk in 1000 ml of TSA (Difco). A control for the efficacy of the neutralizer is prepared for each test product by depositing an aliquot of the dilution of the test product on the surface of the culture medium. After drying, the corresponding inoculum is deposited in the same place. An inoculum control is prepared on agar medium with and without neutralizer. The results are read off after 48 hours of incubation at 37° C.
(§10) They indicate the minimum bactericidal concentrations (MBC) for strains 1, 2, 3 and 4 and the minimum fungicidal concentrations (MFC) for strain 5.

[2] = system: Staphylococcus aureus CIP 53154; assay: Percentage of bactericidal active principle, second method (5 min contact), S. aureus; type: cell-based; details: with proteins as interfering substances, destruction of 99.99%
From the text: as §1, §2
(§11) The second method makes it possible to define a percentage of bactericidal or fungicidal active principle by means of a simplified and automated adaptation of Afnor standards NF T 72-150 and NF T 72-170. In this method, the bactericidal activity of the product is determined with and without interfering substances. It is based on assessing the destruction of 99.99% of the initial bacteria by the product in 5 minutes. The interfering substances are of the protein type and are chosen for the actual conditions of application of this type of product. The contact time between product and bacterial suspension is 5 minutes, the neutralization step is 10 minutes and subculture is effected in a liquid medium.
(§12) The chosen bacterial strains are:
(§13) 1. Staphylococcus aureus
as §6
(§14) The strains are harvested in a manner identical to the first method; these suspensions contain between 1.10^8 and 3.10^8 cells per milliliter. Appropriate dilutions make it possible to have a suspension containing 2 to 6.10^3 cells per milliliter.
(§15) The experiment is performed in microtiter plates; it comprises two steps. The first step, called the preliminary test, checks that the product is indeed neutralized. In the test proper, the different dilutions of the product are brought into contact with 2 to 6.10^3 cells per milliliter of the bacterial suspension in the second row of the microtiter plate. After a contact time of 5 minutes, an aliquot is transferred to the third row containing the neutralizer adapted to the product and to the strain. After a contact time of 10 minutes, aliquots are transferred to the last 5 rows containing Tryptic Soy Broth® (TSB) from Difco.
(§16) The interfering substances tested are a mixture of albumin and yeast extract. In the first row of the microplate, these proteins are brought into contact for 5 minutes with the different dilutions of the product. After this step, the same principle as above is applied: 5 minutes of contact with the germ, 10 minutes of contact with the neutralizer, transfer to TSB.

[3] = system: Mycobacterium smegmatis CIP 7326; assay: Percentage of bactericidal active principle, second method (5 min contact), M. smegmatis; type: cell-based; details: with proteins as interfering substances, destruction of 99.99%
From the text: as §1, §2, §11, §12
5. Mycobacterium smegmatis
as §6, §14, §15, §16

[4] = system: Enterococcus faecium CIP 5855; assay: Minimum bactericidal concentration, first method (30 min contact), E. faecium; type: cell-based; details: CIP5855, 0.5 h, contact time 30 minutes
From the text: as §1, §2, §3, §4, §6, §7, §8, §9, §10

[5] = system: S. aureus, E. faecium, E. coli, P. aeruginosa, C. albicans, M. smegmatis; assay: Second method, bactericidal and fungicidal activity over all strains (Table III); type: cell-based; details: contact time 5 minutes
From the text: as §1, §2
as §11, with “The contact time between product and bacterial suspension is 5 minutes, the neutralization step is 10 minutes and subculture is effected in a liquid medium.” left out
The antifungal activity of the products according to the invention was also determined with and without interfering substances using the method described above. […]

[6] = system: Pseudomonas aeruginosa CIP A22; assay: Percentage of bactericidal active principle, second method (5 min contact), P. aeruginosa; type: cell-based; details: destruction of 99.99%
From the text: as §1, §2, §11, §12
4. Pseudomonas aeruginosa
as §6, §14, §15, §16

[7] = system: Candida albicans CIP 1180; assay: Percentage of fungicidal active principle, second method (5 min contact), C. albicans; type: cell-based
From the text: as §1, §2, §11, §15, §16
The antifungal activity of the products according to the invention was also determined with and without interfering substances using the method described above. The same strain was used as for the first technique, namely Candida albicans CIP 1180. It is harvested in an identical manner to that described in the first method.

[8] = system: Candida albicans CIP 1180; assay: Minimum fungicidal concentration, first method (30 min contact), C. albicans; type: cell-based; details: CIP1180, 0.5 h, contact time 30 minutes
From the text: as §1, §2, §3, §9
The antifungal activity of the products according to the invention was also determined using the method described above. A representative strain of yeast was selected for the study: Candida albicans CIP 1180 (strain 5).
This is maintained on Sabouraud's Dextrose Agar marketed by Difco. The technique is identical to that described for studying the antibacterial activity. After 48 hours of culture at 37° C., the microbial growth is harvested with the aid of glass beads and 5 ml of diluent containing 1 g of tryptone and 8.5 g of sodium chloride in 1000 ml of distilled water; a further 5 ml of the diluent are then added. This suspension gives a percentage transmission of light at 620 nm of 2 to 3% in a spectrophotometer.
The inoculum corresponds to a 1:10 dilution of this microbial suspension. A 1:100 dilution of this suspension, observed between slide and cover glass through a No. 40 microscope objective, must show 10 cells per field, which corresponds to 1,000,000 yeasts per ml.
as §10

[9] = system: Staphylococcus aureus CIP 53154; assay: Minimum bactericidal concentration, first method (30 min contact), S. aureus; type: cell-based; details: CIP53154, 0.5 h, contact time 30 minutes
From the text: as §1, §2, §3, §4, §13, §6, §7, §8, §9, §10

Product solubility = details: water
[10] = system: Escherichia coli CIP 54127; assay: Percentage of bactericidal active principle, second method (5 min contact), E. coli; type: cell-based; details: destruction of 99.99%
From the text: as §1, §2, §11, §12, §5, §6, §14, §15, §16

[11] = system: Pseudomonas aeruginosa CIP A22; assay: Minimum bactericidal concentration, first method (30 min contact), P. aeruginosa; type: cell-based; details: CIPA22, 0.5 h, contact time 30 minutes
From the text: as §1, §2, §3, §4
4. Psuedomonas aeruginosa
as §6, §7, §8, §9, §10

[12] = system: Enterococcus faecium CIP 5855; assay: Percentage of bactericidal active principle, second method (5 min contact), E. faecium; type: cell-based; details: destruction of 99.99%
From the text: as §1, §2, §11, §12, §6, §14, §15, §16

[13] = Simple: without interfering substances
[14] = with proteins as interfering substances

- solubility (Product solubility): 18 mg/mL (≈ 66600 µM)
Structure (SMILES): CCCCCCCCCCCC(=O)NCCN(C)C [D1, reference compound]
- MBC [1]: 50 µg/mL (≈ 185 µM)
- Bactericidal activity, results in percentage of active principle, S. aureus [2]: 0.5 percentage of active principle
- Bactericidal activity, results in percentage of active principle, M. smegmatis [3]: > 0.5 percentage of active principle
- MBC [4]: 50 µg/mL (≈ 185 µM)
- Ranking of activities among the products [5]: the activities are the lowest
- Bactericidal activity, results in percentage of active principle, P. aeruginosa [6, 13]: 0.05 percentage of active principle
- Bactericidal activity, results in percentage of active principle, P. aeruginosa [6, 14]: 0.5 percentage of active principle
- Fungicidal activity, results in percentage of active principle, C. albicans [7, 13]: 0.1 percentage of active principle
- Fungicidal activity, results in percentage of active principle, C. albicans [7, 14]: 0.5 percentage of active principle
- MFC [8]: 200 µg/mL (≈ 739 µM)
- MBC [9]: 50 µg/mL (≈ 185 µM)
- Bactericidal activity, results in percentage of active principle, E. coli [10, 13]: 0.05 percentage of active principle
- Bactericidal activity, results in percentage of active principle, E. coli [10, 14]: 0.1 percentage of active principle
- MBC [11]: 50 µg/mL (≈ 185 µM)
- Bactericidal activity, results in percentage of active principle, E. faecium [12, 13]: 0.01 percentage of active principle
- Bactericidal activity, results in percentage of active principle, E. faecium [12, 14]: 0.1 percentage of active principle
